Results: US11311513B2, “Methods, agents, and compositions for the treatment of acute myeloid leukemia” (UNIVERSITY OF CINCINNATI, priority 2017, dated 2022)

How the values were obtained:
[1] = tested on: Tet1 deficient mouse BM progenitor cells transduced with MLL-AF9; assay: Viability of MLL-AF9-transduced Tet1 deficient BM progenitor cells; type: cell-based; conditions: 48 hrs; for cell viability: Tet1 deficient counterpart cells; for viability of cells with induced Tet1 deficiency: conditional Tet1 knockout, polyI:C induced, 500 nM
Description: (§1) FIG. 5. […] Gene expression levels are shown. […] ChIP-qPCR assay was carried out 48 hrs after drug treatment. Enrichment of STAT3, STAT5, or IgG at the TET1 promoter region and other regions are shown. […] BM progenitor cells of wild-type or Tet1^−/− mice were retrovirally transduced with MLL-AF9. […] Relative cell viabilities are shown. (m) Cre-Tet1f mouse BM progenitor cells were retrovirally transduced with MLL-AF9. […] Relative cell viability is shown. (n-o) THP-1 (n) and MONOMAC-6 (o) cells were infected with lentivirus of pLenti-puro vector-based Tet1 construct. […] Relative cell viability is shown. *, P<0.05; **, P<0.01, two-tailed t-test. Error bar indicates SD of triplicate experiments.
FIG. 13. […] (a-d) BM progenitor cells of wild-type or Tet1^−/− mice were retrovirally transduced with MLL-AF9. Infected cells were treated with 200 nM JAK/STAT inhibitors individually, including Pacritinib (a), KW-2449 (b), Stattic (c) or sc-355979 (d), for 48 hrs. Relative cell viabilities are shown. (e) Cre-Tet1^fl/fl mouse BM progenitor cells were retrovirally transduced with MLL-AF9. […] Cell viabilities (normalized to non-induced Cre-Tet1^fl/fl treated with DMSO control) are shown. ‘K, P<0.05; ‘K‘K, P<0.01, two-tailed t-test
siRNAs were transfected into MONOMAC-6 cells with Cell Line Nucleofector Kit V following program T-037, using the Amaxa Nucleofector Technology (Amaxa Biosystems, Berlin, Germany). Experiments were performed 48 h after transfection. Retrovirus infection of mouse BM progenitor cells were conducted as described previously with some modifications. Briefly, retrovirus vectors were co-transfected with pCL-Eco packaging vector (IMGENEX, San Diego, Calif.) into HEK293T cells using Effectene Transfection Reagent (Qiagen, Valencia, Calif.) to produce retrovirus. BM cells were harvested from a cohort of 4- to 6-week-old C57BL/6, Tet1^−/−, or Cre-Tet1^fl/fl donor mice after five days of 5-fluorouracil (5-FU) treatment, and primitive hematopoietic progenitor cells were enriched with Mouse Lineage Cell Depletion Kit (Miltenyi Biotec Inc., Auburn, Calif.). An aliquot of enriched hematopoietic progenitor cells was added to retroviral supernatant together with polybrene in cell culture plates, which were centrifuged at 2,000 g for 2 hours at 32° C. (i.e., spinoculation) and then the medium was replaced with fresh media and incubated for 20 hours at 37° C. Next day, the same procedure was repeated once. Infected cells were grown in RPMI 1640 medium containing 10 ng/mL murine recombinant IL-3, 10 ng/mL IL-6, 100 ng/mL murine recombinant SCF (R&D Systems, Minneapolis, Minn.), along with 1.0 mg/ml of G418. Experiments were performed 7 days after infection.
These experiments were conducted as described previously (Jiang, X., et al., Blockade of miR-150 Maturation by MLL-Fusion/MYC/LIN-28 Is Required for MLL-Associated Leukemia, Cancer Cell 22:524-35 (2012); Li, Z., et al., miR-196b directly targets both HOXA9/MEIS1 oncogenes and FAS tumour suppressor in MLL-rearranged leukaemia, Nat Commun 2:688 (2012)) with ApoLive-Glo Multiplex Assay Kit, or CellTiter 96 AQueous Non-Radioactive Cell Proliferation Assay Kit (Promega, Madison, Wis.).

[2] = tested on: wild-type mouse BM progenitor cells transduced with MLL-AF9; assay: Viability of MLL-AF9-transduced wild-type BM progenitor cells; type: cell-based; conditions: 48 hrs
Description: as §1
siRNAs were transfected into MONOMAC-6 cells with Cell Line Nucleofector Kit V following program T-037, using the Amaxa Nucleofector Technology (Amaxa Biosystems, Berlin, Germany). Experiments were performed 48 h after transfection. Retrovirus infection of mouse BM progenitor cells were conducted as described previously with some modifications. Briefly, retrovirus vectors were co-transfected with pCL-Eco packaging vector (IMGENEX, San Diego, Calif.) into HEK293T cells using Effectene Transfection Reagent (Qiagen, Valencia, Calif.) to produce retrovirus. […]

FLT3-ITD/NPM1^mut AML = assay: FLT3-ITD/NPM1mut AML secondary BMT mouse model; type: in vivo, mice; conditions: 2.5 mg/kg i.p. once per day for 10 days; for median survival: control 21 days
Description: FIG. 4. […] (a) Structures of NSC-370284 and UC-514321. […] Cells were treated with drugs at indicated doses. Cell viability was detected by MTS 48 hrs post-treatment. Error bar indicates SD of triplicate experiments. […] Secondary BMT recipient mice were transplanted with primary leukemic BM cells with MLL-AF9 (f) or AML-ETO9a (g). […] Kaplan-Meier curves are shown. The P values were determined by log-rank test. […] Secondary BMT recipient mice were transplanted with primary leukemic BM cells with MLL-AF10 or FLT3-ITD/NPM1^mut. […] Kaplan-Meier curves are shown. The P values were determined by log-rank test. (j) Wright-Giemsa staining of mouse PB and BM, or H&E staining of mouse spleen and liver of MLL-AF9 AML secondary BMT recipients with or without drug treatment.
Secondary mouse BMT was carried out as described previously. […] For the “5+3” treatment, AraC (Cytarabine, Bedford Laboratories) and DNR (Daunorubicin, Sigma-Aldrich) were reconstituted with PBS, filtered, and stored in aliquots at −20° C. The “5+3” therapy regimen consists of five consecutive daily doses of 50 mg/kg AraC along with 3 mg/kg DNR daily during the first three days of treatment. Drugs were delivered by tail vein and intraperitoneal injection. Weights were taken daily during treatment and doses were recalculated to ensure the mice received a consistent dose of 50 mg/kg AraC and 3 mg/kg DNR every treatment.

[3] = tested on: binding of STAT3/5 to TET1 promoter; assay: ChIP-qPCR in MONOMAC-6 cells; type: cell-based; conditions: 500 nM, 48 hrs
Description: ChIP assay was conducted as described previously (Barry, S. P., et al., STAT3 modulates the DNA damage response pathway, Int J Exp Pathol 91:506-14 (2010)), with SABiosciences Corporation's ChampionChIP One-Day kit (Qiagen, Frederick, Md.) following the manufacturer's protocol. Chromatin from MONOMAC-6 cells were cross-linked, sonicated into an average size of ˜500 bp, and then immunoprecipitated with antibodies against STAT3 (Santa Cruz, Dallas, Tex.), STAT5 (BD Biosciences, San Jose, Calif.), or IgG (Abcam, Cambridge, Mass.). Purified DNA was amplified by real-time qPCR using primers targeting the promoter of TET1 as described before (Huang, H., et al., TET1 plays an essential oncogenic role in MLL-rearranged leukemia, Proc Natl Acad Sci USA 110:11994-99 (2013)). Sequences of qPCR primers are: Site 1 forward: 5′-[…]-3′ (SEQ ID NO: 3), reverse: 5′-[…]-3′ (SEQ ID NO: 4); Site 2 forward: 5′-[…]-3′ (SEQ ID NO: 5), reverse: 5′-[…]-3′ (SEQ ID NO: 6); Site 3 forward: 5′-[…]-3′ (SEQ ID NO: 7), reverse: 5′-[…]-3′ (SEQ ID NO: 8); Site 4 forward: 5′-[…]-3′ (SEQ ID NO: 9); reverse: 5′-[…]-3′ (SEQ ID NO: 10).

In the case of COc1cc(C(c2cc3c(cc2O)OCO3)N2CCCC2)cc(OC)c1OC (centres unmarked) [NSC-370284, 6-(1-Pyrrolidinyl(3,4,5-trimethoxyphenyl)methyl)-1,3-benzodioxol-5-ol], the cell viability [1] is reported as “no such inhibition”, the “viability of cells with induced Tet1 deficiency” value [1] is reported as “no significant effect” and the cell viability [2] is reported as “remarkable repression of cell viability”. For the same compound, the median survival (FLT3-ITD/NPM1^mut AML) was 34 days and the “binding of STAT3 and STAT5 on the TET1 loci/promoter” value [3] was “could be disturbed”.
For CC(C)(C)c1cc(C(c2cc3c(cc2O)OCO3)N2CCOCC2)cc(C(C)(C)C)c1O (centres unmarked) [UC-514321, 6-{[4-Hydroxy-3,5-bis(2-methyl-2-propanyl)phenyl](4-morpholinyl)methyl}-1,3-benzodioxol-5-ol], the cell viability [1] was “no such inhibition”, the “viability of cells with induced Tet1 deficiency” value [1] was “no significant effect” and the cell viability [2] was “remarkable repression of cell viability”. The “recipients that developed full-blown AML within 50 days” value (FLT3-ITD/NPM1^mut AML) was “none”, the median survival (FLT3-ITD/NPM1^mut AML) was greater than 50 days and the “binding of STAT3 and STAT5 on the TET1 loci/promoter” value [3] was “remarkable repression”.
